{"source": "patent US20060134144A1", "about": "“Mucoadhesive composition and formulation for solubilization of insoluble drugs and preparation method thereof” (priority 2002, published 2006)", "test": "Dispersion behaviour on mixing with water", "assay_type": "physicochemical", "settings": "mixed with water", "description": "The size of the emulsion particles were measured by using Malvern Zetasizer (Malvern Instruments Limited, England) after preparing the emulsion by adding 3 mL of distilled water to 2 μL of thus obtained liquid formulation. An average particle size and polydispersity were obtained by measuring values for a given formulation three times (Orr, Encyclopedia of emulsion technology, 1, 369-404, 1985). The polydispersity was obtained as the variance indicated by the logarithmic scale in the logarithmic normal distribution function. The above method in measuring the particle size and the polydispersity was used throughout the following examples.\nThe above composition exists as semi-solid or solid at room temperature and in a refrigerator, respectively, but as liquid at or above 40° C. Dispersion with the average particle size of 530 nm was obtained when the above composition was vortexed for 10 s in water. The absorbance at 400 nm was 2.36.\nMonoolein (99.5% purity) from Nu-Chek Prep (Elysian, Minn., USA) or Myverol 18-99K (monoolein content 86.6 weight %) from Danisco A/S (Copenhagen, Denmark) were mixed with water. […] Since the cubic phase had very high viscosity and floated in water, the particle size or absorbance could not be determined.", "data": [{"molecule": "CCCCCCCC/C=C\\CCCCCCCC(=O)OCC(O)CO", "note": "(stereo not shown) [Monoolein (99.5% purity), Monoolein]", "values": [{"measurement": "dispersion behaviour in water", "value": "Cubic phases were formed instead of dispersion"}]}]}
